Assay results: patent US20260206755A1, “COMPOUNDS AND COMPOSITIONS HAVING KNOCK-DOWN OR BLOOD FEED INHIBITION ACTIVITY AGAINST INSECT PESTS” (priority 2017, published 2026)
Where two headings read alike, the source gives them in different places.

Tested on: Anopheles stephensi
Experiment: Anopheles stephensi treated well plate contact test: knockdown and mortality
Type: in vivo
In short: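 Well surfaces coated with ethanol solution of compound at a defined concentration, alone or with 2 ppm TFNA-AM, then dried. Five non-blood-fed 2–5-day-old adult females per well, fed 10% sucrose; knockdown scored at 1 hour, mortality at 24 and 48 hours, replicate means reported.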

[1] = Anopheles stephensi, test compound 0.2 ppm, without TFNA-AM, after 24 hours, read-out: mortality % 24, without TFNA-AM
[2] = Anopheles stephensi, test compound 0.2 ppm, without TFNA-AM, after 48 hours, read-out: mortality % 48, without TFNA-AM
[3] = Anopheles stephensi, test compound 0.2 ppm, without TFNA-AM, knockdown after 1 hour, read-out: Knock Down, without TFNA-AM
[4] = Anopheles stephensi, test compound 2 ppm, without TFNA-AM, after 24 hours, read-out: mortality % 24, without TFNA-AM
[5] = Anopheles stephensi, test compound 2 ppm, without TFNA-AM, after 48 hours, read-out: mortality % 48, without TFNA-AM
[6] = Anopheles stephensi, test compound 2 ppm, without TFNA-AM, knockdown after 1 hour, read-out: Knock Down, without TFNA-AM
[7] = Anopheles stephensi, test compound 20 ppm, without TFNA-AM, after 24 hours, read-out: mortality % 24, without TFNA-AM
[8] = Anopheles stephensi, test compound 20 ppm, without TFNA-AM, after 48 hours, read-out: mortality % 48, without TFNA-AM
[9] = Anopheles stephensi, test compound 20 ppm, without TFNA-AM, knockdown after 1 hour, read-out: Knock Down, without TFNA-AM
[10] = Anopheles stephensi, test compound 200 ppm, without TFNA-AM, after 24 hours, read-out: mortality % 24, without TFNA-AM
[11] = Anopheles stephensi, test compound 200 ppm, without TFNA-AM, after 48 hours, read-out: mortality % 48, without TFNA-AM
[12] = Anopheles stephensi, test compound 200 ppm, without TFNA-AM, knockdown after 1 hour, adult females, read-out: Knock Down, without TFNA-AM
[13] = test compound 0.2 ppm plus 2 ppm TFNA-AM, after 24 hours
[14] = test compound 0.2 ppm plus 2 ppm TFNA-AM, after 48 hours
[15] = test compound 0.2 ppm plus 2 ppm TFNA-AM, knockdown after 1 hour
[16] = test compound 2 ppm plus 2 ppm TFNA-AM, after 24 hours
[17] = test compound 2 ppm plus 2 ppm TFNA-AM, after 48 hours
[18] = test compound 2 ppm plus 2 ppm TFNA-AM, knockdown after 1 hour
[19] = test compound 20 ppm plus 2 ppm TFNA-AM, after 24 hours
[20] = test compound 20 ppm plus 2 ppm TFNA-AM, after 48 hours
[21] = test compound 20 ppm plus 2 ppm TFNA-AM, knockdown after 1 hour
[22] = test compound 200 ppm plus 2 ppm TFNA-AM, after 24 hours
[23] = test compound 200 ppm plus 2 ppm TFNA-AM, after 48 hours
[24] = test compound 200 ppm plus 2 ppm TFNA-AM, knockdown after 1 hour
[25] = test compound 0.2 ppm, without TFNA-AM, after 24 hours
[26] = test compound 0.2 ppm, without TFNA-AM, after 48 hours
[27] = test compound 0.2 ppm, without TFNA-AM, knockdown after 1 hour
[28] = test compound 2 ppm, without TFNA-AM, after 24 hours
[29] = test compound 2 ppm, without TFNA-AM, after 48 hours
[30] = test compound 2 ppm, without TFNA-AM, knockdown after 1 hour
[31] = test compound 20 ppm, without TFNA-AM, after 24 hours
[32] = test compound 20 ppm, without TFNA-AM, after 48 hours
[33] = test compound 20 ppm, without TFNA-AM, knockdown after 1 hour
[34] = test compound 200 ppm, without TFNA-AM, after 24 hours
[35] = test compound 200 ppm, without TFNA-AM, after 48 hours
[36] = test compound 200 ppm, without TFNA-AM, knockdown after 1 hour, adult females

Row | Compound | mortality at 0.2 ppm [1] [%] | mortality at 0.2 ppm [2] [%] | pest or weed control at 0.2 ppm [3] [%] | mortality at 2 ppm [4] [%] | mortality at 2 ppm [5] [%] | pest or weed control at 2 ppm [6] [%] | mortality at 20 ppm [7] [%] | mortality at 20 ppm [8] [%] | mortality % 24, with TFNA-AM [13] [%] | mortality % 48, with TFNA-AM [14] [%] | Knock Down, with TFNA-AM [15] [%] | mortality % 24, with TFNA-AM [16] [%] | mortality % 48, with TFNA-AM [17] [%] | Knock Down, with TFNA-AM [18] [%] | mortality % 24, with TFNA-AM [19] [%] | mortality % 48, with TFNA-AM [20] [%] | Knock Down, with TFNA-AM [21] [%] | mortality % 24, with TFNA-AM [22] [%] | mortality % 48, with TFNA-AM [23] [%] | Knock Down, with TFNA-AM [24] [%] | other results
1 | OC(c1ccc(Cl)cc1)(c1ccc(Cl)cc1)C(Cl)(Cl)Cl [Dicofol] | 0 | 0 | 0 | 0 | 0 | 0 | 0 | 0 | 20 | 0 | 100 | 60 | 20 | 100 | 80 | 100 | 100 | 100 | 100 | 100 | pest or weed control at 20 ppm [9]: 0%; mortality at 200 ppm [10]: 0%; mortality at 200 ppm [11]: 0%; pest or weed control at 200 ppm [12]: 0%
2 | Nc1nc(N)nc(NC2CC2)n1 [Cyromazine] | 0 | 0 | 0 | 0 | 0 | 0 | 0 | 0 | 20 | 0 | 100 | 20 | 0 | 100 | 60 | 40 | 100 | 80 | 40 | 100 | pest or weed control at 20 ppm [9]: 0%; mortality at 200 ppm [10]: 0%; mortality at 200 ppm [11]: 0%; pest or weed control at 200 ppm [12]: 0%
3 | O=C1C=C(N(Cc2ccc(Cl)nc2)CC(F)F)CO1 [Flupyradifurone] |  |  |  |  |  |  |  |  | 10 | 0 | 100 | 20 | 20 | 100 | 50 | 60 | 100 | 70 | 90 | 100 | mortality % 24, without TFNA-AM [25]: 0%; mortality % 48, without TFNA-AM [26]: 0%; Knock Down, without TFNA-AM [27]: 0%; mortality % 24, without TFNA-AM [28]: 0%; mortality % 48, without TFNA-AM [29]: 0%; Knock Down, without TFNA-AM [30]: 0%; mortality % 24, without TFNA-AM [31]: 0%; mortality % 48, without TFNA-AM [32]: 10%; Knock Down, without TFNA-AM [33]: 0%; mortality % 24, without TFNA-AM [34]: 20%; mortality % 48, without TFNA-AM [35]: 30%; Knock Down, without TFNA-AM [36]: 0%
4 | CN(C(=O)c1ccccc1)c1cccc(C(=O)Nc2c(Br)cc(C(F)(C(F)(F)F)C(F)(F)F)cc2C(F)(F)F)c1F [Broflanilide] |  |  |  |  |  |  |  |  | 87 | 93 | 100 | 100 | 100 | 100 | 100 | 100 | 93 | 100 | 100 | 87 | mortality % 24, without TFNA-AM [25]: 0%; mortality % 48, without TFNA-AM [26]: 20%; Knock Down, without TFNA-AM [27]: 0%; mortality % 24, without TFNA-AM [28]: 100%; mortality % 48, without TFNA-AM [29]: 100%; Knock Down, without TFNA-AM [30]: 0%; mortality % 24, without TFNA-AM [31]: 100%; mortality % 48, without TFNA-AM [32]: 100%; Knock Down, without TFNA-AM [33]: 0%; mortality % 24, without TFNA-AM [34]: 100%; mortality % 48, without TFNA-AM [35]: 100%; Knock Down, without TFNA-AM [36]: 0%
5 | N#Cc1nn(-c2c(Cl)cc(C(F)(F)F)cc2Cl)c(N)c1[S+]([O-])C(F)(F)F (stereo not drawn) [Fipronil] | 20 | 40 | 0 | 40 | 100 | 0 | 100 | 100 | 60 | 100 | 100 | 80 | 100 | 100 | 100 | 100 | 100 |  |  |  | mortality at 0.02 ppm (Anopheles stephensi, test compound 0.02 ppm, without TFNA-AM, after 24 hours, read-out: mortality % 24, without TFNA-AM): 0%; mortality at 0.02 ppm (Anopheles stephensi, test compound 0.02 ppm, without TFNA-AM, after 48 hours, read-out: mortality % 48, without TFNA-AM): 20%; pest or weed control at 0.02 ppm (Anopheles stephensi, test compound 0.02 ppm, without TFNA-AM, knockdown after 1 hour, read-out: Knock Down, without TFNA-AM): 0%; pest or weed control at 20 ppm [9]: 0%; mortality % 24, with TFNA-AM (test compound 0.02 ppm plus 2 ppm TFNA-AM, after 24 hours): 0%; mortality % 48, with TFNA-AM (test compound 0.02 ppm plus 2 ppm TFNA-AM, after 48 hours): 0%; Knock Down, with TFNA-AM (test compound 0.02 ppm plus 2 ppm TFNA-AM, knockdown after 1 hour): 100%
6 | Spinosad |  |  |  |  |  |  |  |  | 80 | 100 | 100 | 100 | 100 | 100 | 100 | 80 | 100 | 100 | 100 | 100 | mortality % 24, without TFNA-AM [25]: 0%; mortality % 48, without TFNA-AM [26]: 0%; Knock Down, without TFNA-AM [27]: 40%; mortality % 24, without TFNA-AM [28]: 0%; mortality % 48, without TFNA-AM [29]: 0%; Knock Down, without TFNA-AM [30]: 40%; mortality % 24, without TFNA-AM [31]: 0%; mortality % 48, without TFNA-AM [32]: 0%; Knock Down, without TFNA-AM [33]: 40%; mortality % 24, without TFNA-AM [34]: 40%; mortality % 48, without TFNA-AM [35]: 40%; Knock Down, without TFNA-AM [36]: 60%
7 | CON=C(C(=O)OC)c1ccccc1CON=C(C)c1cccc(C(F)(F)F)c1 [Trifloxystrobin] | 0 | 0 | 0 | 0 | 0 | 50 | 0 | 0 | 0 | 0 | 100 | 60 | 70 | 100 | 100 | 100 | 100 | 100 | 100 | 100 | pest or weed control at 20 ppm [9]: 70%; mortality at 200 ppm [10]: 0%; mortality at 200 ppm [11]: 0%; pest or weed control at 200 ppm [12]: 80%
8 | Cc1ccc(/N=C/N(C)/C=N/c2ccc(C)cc2C)c(C)c1 [Amitraz] | 0 | 0 | 0 | 0 | 0 | 0 | 0 | 0 | 20 | 0 | 100 | 20 | 0 | 100 | 20 | 40 | 100 | 100 | 100 | 100 | pest or weed control at 20 ppm [9]: 0%; mortality at 200 ppm [10]: 0%; mortality at 200 ppm [11]: 0%; pest or weed control at 200 ppm [12]: 0%
